{"source": "patent US10168342B2", "about": "“Lipid probes and uses thereof” (THE SCRIPPS RESEARCH INSTITUTE, priority 2015, dated 2019)", "key": {"[1]": {"target": "AEA-DA lipid probe targets in Neuro2a cells (Mus musculus, UniProt P20029)", "sequence (P20029 20-655)": "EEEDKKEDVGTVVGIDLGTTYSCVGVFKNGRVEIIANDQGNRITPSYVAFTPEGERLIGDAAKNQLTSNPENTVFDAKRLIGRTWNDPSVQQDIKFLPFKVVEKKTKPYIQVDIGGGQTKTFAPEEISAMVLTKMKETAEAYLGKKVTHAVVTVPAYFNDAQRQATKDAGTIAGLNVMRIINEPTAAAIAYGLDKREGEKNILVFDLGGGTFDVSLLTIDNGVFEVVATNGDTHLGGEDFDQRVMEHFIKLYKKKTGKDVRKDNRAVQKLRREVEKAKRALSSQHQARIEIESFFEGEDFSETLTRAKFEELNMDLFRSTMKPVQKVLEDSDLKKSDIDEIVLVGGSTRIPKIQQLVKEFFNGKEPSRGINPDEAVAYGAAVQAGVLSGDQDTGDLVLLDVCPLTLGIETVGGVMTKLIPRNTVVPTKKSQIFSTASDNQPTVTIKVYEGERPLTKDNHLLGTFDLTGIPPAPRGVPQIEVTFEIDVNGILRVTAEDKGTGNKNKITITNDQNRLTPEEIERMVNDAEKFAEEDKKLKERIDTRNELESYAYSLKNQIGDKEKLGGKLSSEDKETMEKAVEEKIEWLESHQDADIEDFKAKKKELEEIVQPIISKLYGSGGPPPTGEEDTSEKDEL"}, "[2]": {"target": "T1, AEA-DA lipid probe targets in Neuro2a cells (Mus musculus, UniProt Q03517)", "T1 sequence (Q03517 31-617)": "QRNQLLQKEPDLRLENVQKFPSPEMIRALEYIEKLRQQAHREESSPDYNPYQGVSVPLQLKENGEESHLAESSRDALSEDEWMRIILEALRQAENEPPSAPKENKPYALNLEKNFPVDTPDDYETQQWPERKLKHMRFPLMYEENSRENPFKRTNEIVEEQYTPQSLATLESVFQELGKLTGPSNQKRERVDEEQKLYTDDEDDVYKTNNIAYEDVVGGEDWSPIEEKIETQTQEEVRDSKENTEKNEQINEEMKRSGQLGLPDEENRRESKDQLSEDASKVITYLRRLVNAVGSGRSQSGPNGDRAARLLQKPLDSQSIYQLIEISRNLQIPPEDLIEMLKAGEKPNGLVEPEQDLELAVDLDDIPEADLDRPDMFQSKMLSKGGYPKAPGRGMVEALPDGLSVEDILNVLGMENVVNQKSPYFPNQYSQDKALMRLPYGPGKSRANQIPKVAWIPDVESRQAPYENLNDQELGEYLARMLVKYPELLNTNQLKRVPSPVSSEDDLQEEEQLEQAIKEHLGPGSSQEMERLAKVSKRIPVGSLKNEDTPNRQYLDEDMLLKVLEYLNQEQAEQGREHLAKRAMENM"}, "[3]": {"target": "T2, AEA-DA lipid probe targets in Neuro2a cells (Mus musculus, UniProt Q3TZX3)", "T2 sequence (Q3TZX3 1-320)": "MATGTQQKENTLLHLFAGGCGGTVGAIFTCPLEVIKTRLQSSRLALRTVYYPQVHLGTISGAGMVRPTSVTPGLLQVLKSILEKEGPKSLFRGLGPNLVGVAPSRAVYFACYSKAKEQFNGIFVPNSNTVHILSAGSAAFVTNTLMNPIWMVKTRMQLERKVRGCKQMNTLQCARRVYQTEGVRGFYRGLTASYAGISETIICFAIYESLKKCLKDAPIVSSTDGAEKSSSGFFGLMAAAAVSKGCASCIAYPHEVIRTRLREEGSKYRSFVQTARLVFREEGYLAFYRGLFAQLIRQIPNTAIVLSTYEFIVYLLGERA"}, "[4]": {"target": "T3, AEA-DA lipid probe targets in Neuro2a cells (Mus musculus, UniProt P54071)", "T3 sequence (P54071 40-452)": "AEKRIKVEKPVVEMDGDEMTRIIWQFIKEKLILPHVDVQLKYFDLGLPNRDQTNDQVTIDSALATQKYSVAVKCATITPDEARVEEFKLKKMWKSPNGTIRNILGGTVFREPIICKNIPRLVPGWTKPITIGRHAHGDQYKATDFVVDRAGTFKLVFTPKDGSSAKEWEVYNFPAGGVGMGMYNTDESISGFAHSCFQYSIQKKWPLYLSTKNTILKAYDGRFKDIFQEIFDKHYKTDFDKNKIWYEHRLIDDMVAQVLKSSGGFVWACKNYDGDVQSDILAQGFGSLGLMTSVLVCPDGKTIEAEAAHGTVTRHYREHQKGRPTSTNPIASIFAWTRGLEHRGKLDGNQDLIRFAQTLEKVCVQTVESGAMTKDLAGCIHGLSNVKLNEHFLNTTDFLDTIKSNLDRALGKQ"}, "[5]": {"target": "T4, AEA-DA lipid probe targets in Neuro2a cells (Mus musculus, UniProt Q80W54)", "T4 sequence (Q80W54 1-475)": "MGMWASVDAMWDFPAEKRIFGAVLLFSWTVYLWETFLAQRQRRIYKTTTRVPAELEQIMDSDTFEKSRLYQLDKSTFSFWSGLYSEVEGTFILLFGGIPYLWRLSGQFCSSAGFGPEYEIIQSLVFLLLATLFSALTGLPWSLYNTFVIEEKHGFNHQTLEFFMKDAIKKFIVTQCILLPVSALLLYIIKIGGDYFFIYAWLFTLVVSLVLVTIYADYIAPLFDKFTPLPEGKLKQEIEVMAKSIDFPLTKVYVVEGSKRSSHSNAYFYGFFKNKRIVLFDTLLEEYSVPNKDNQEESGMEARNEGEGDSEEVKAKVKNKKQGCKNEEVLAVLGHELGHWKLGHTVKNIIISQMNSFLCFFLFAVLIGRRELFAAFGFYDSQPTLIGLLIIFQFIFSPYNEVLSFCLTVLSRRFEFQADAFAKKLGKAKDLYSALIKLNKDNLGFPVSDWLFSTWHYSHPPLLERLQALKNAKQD"}, "[6]": {"target": "T5, AEA-DA lipid probe targets in Neuro2a cells (Mus musculus, UniProt Q8C3X8)", "T5 sequence (Q8C3X8 1-702)": "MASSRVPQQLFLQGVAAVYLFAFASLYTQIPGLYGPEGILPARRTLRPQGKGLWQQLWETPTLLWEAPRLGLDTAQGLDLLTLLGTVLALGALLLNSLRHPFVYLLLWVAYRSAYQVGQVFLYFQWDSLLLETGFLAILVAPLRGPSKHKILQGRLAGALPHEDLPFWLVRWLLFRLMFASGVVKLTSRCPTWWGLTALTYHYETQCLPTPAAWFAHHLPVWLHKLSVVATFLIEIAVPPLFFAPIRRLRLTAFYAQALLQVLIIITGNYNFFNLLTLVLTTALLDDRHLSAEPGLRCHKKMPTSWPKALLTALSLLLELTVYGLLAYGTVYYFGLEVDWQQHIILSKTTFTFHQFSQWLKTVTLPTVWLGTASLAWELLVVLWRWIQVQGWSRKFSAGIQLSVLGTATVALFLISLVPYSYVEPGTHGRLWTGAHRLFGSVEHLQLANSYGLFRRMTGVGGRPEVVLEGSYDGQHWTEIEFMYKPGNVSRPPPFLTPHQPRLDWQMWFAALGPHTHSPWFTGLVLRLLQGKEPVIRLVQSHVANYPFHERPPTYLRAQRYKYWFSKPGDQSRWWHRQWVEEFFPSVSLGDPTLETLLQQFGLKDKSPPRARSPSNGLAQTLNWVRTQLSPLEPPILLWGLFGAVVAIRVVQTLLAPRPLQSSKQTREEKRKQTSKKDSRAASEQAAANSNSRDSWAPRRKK"}, "[7]": {"target": "AEA-DA lipid probe targets in Neuro2a cells (Mus musculus, UniProt Q9CYN2)", "sequence (Q9CYN2 whole entry)": "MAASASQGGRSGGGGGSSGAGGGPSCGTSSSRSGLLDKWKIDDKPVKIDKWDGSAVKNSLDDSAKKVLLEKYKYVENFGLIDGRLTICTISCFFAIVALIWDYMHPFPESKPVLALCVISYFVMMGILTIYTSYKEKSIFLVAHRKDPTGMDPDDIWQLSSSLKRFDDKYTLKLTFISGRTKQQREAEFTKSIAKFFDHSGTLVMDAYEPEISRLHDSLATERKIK"}}, "note": "Read-outs that look alike come from different tables or passages of the source.", "data": [{"smiles": "O=C(/C=C/c1cccnc1)NCCCCC1CCN(C(=O)c2ccccc2)CC1", "note": "[FK-866, reference compound]", "values": [{"measurement": "SILAC ratio Hspa5", "setting": "[1]; competitor 25 μM", "value": 1.2}, {"measurement": "SILAC ratio, Scg2", "setting": "[2]; competitor 25 μM", "value": 1.0}, {"measurement": "SILAC ratio Slc25a33", "setting": "[3]; competitor 25 μM", "value": 1.2}, {"measurement": "SILAC ratio Idh2", "setting": "[4]; competitor 25 μM", "value": 1.2}, {"measurement": "SILAC ratio Zmpste24", "setting": "[5]; competitor 25 μM", "value": 1.1}, {"measurement": "SILAC ratio Lmf2", "setting": "[6]; competitor 25 μM", "value": 1.2}, {"measurement": "SILAC ratio Spcs2", "setting": "[7]; competitor 25 μM", "value": 1.3}]}, {"smiles": "CCCCC/C=C\\C/C=C\\C/C=C\\C/C=C\\CCCC(=O)NCCO", "note": "[AEA, anandamide, reference compound]", "values": [{"measurement": "SILAC ratio Hspa5", "setting": "[1]; competitor 200 μM", "value": 1.2}, {"measurement": "SILAC ratio, Scg2", "setting": "[2]; competitor 200 μM", "value": 1.2}, {"measurement": "SILAC ratio Slc25a33", "setting": "[3]; competitor 200 μM", "value": 1.3}, {"measurement": "SILAC ratio Idh2", "setting": "[4]; competitor 200 μM", "value": 1.2}, {"measurement": "SILAC ratio Zmpste24", "setting": "[5]; competitor 200 μM", "value": 1.7}, {"measurement": "SILAC ratio Lmf2", "setting": "[6]; competitor 200 μM", "value": 1.9}, {"measurement": "SILAC ratio Spcs2", "setting": "[7]; competitor 200 μM", "value": 1.7}]}, {"smiles": "CN1CCN(C(=O)c2c(-c3ccccc3)c3cc([N+](=O)[O-])ccc3n2C)CC1", "note": "[KML110, (1-Methyl-5-nitro-3-phenyl-1H-indol-2-yl)(4-methylpiperazin-1-yl)methanone]", "values": [{"measurement": "SILAC ratio Hspa5", "setting": "[1]; competitor 25 μM", "value": 1.4}, {"measurement": "SILAC ratio, Scg2", "setting": "[2]; competitor 25 μM", "value": 1.4}, {"measurement": "SILAC ratio Slc25a33", "setting": "[3]; competitor 25 μM", "value": 1.4}, {"measurement": "SILAC ratio Idh2", "setting": "[4]; competitor 25 μM", "value": 1.3}, {"measurement": "SILAC ratio Zmpste24", "setting": "[5]; competitor 25 μM", "value": 1.4}, {"measurement": "SILAC ratio Lmf2", "setting": "[6]; competitor 25 μM", "value": 1.7}, {"measurement": "SILAC ratio Spcs2", "setting": "[7]; competitor 25 μM", "value": 1.6}]}, {"smiles": "C=CCN(C)CCCCCCOc1ccc(C(=O)c2ccc(Br)cc2)c(F)c1", "note": "[Ro 48-8071, reference compound]", "values": [{"measurement": "SILAC ratio Hspa5", "setting": "[1]; competitor 25 μM", "value": 0.9}, {"measurement": "SILAC ratio, Scg2", "setting": "[2]; competitor 25 μM", "value": 1.1}, {"measurement": "SILAC ratio Slc25a33", "setting": "[3]; competitor 25 μM", "value": 1.0}, {"measurement": "SILAC ratio Idh2", "setting": "[4]; competitor 25 μM", "value": 0.9}, {"measurement": "SILAC ratio Zmpste24", "setting": "[5]; competitor 25 μM", "value": 1.0}, {"measurement": "SILAC ratio Lmf2", "setting": "[6]; competitor 25 μM", "value": 1.3}, {"measurement": "SILAC ratio Spcs2", "setting": "[7]; competitor 25 μM", "value": 1.2}]}, {"smiles": "CN1CCN(C(=O)c2[nH]c3ccc([N+](=O)[O-])cc3c2-c2ccccc2)CC1", "note": "[MJN228, (4-Methylpiperazin-1-yl)(5-nitro-3-phenyl-1H-indol-2-yl)methanone]", "values": [{"measurement": "SILAC ratio Hspa5", "setting": "[1]; competitor 10 μM", "value": 1.4}, {"measurement": "SILAC ratio Hspa5", "setting": "[1]; competitor 25 μM", "value": 1.4}, {"measurement": "SILAC ratio Hspa5", "setting": "[1]; competitor 50 μM", "value": 1.4}, {"measurement": "SILAC ratio Hspa5", "setting": "[1]; competitor 100 μM", "value": 1.5}, {"measurement": "SILAC ratio, Scg2", "setting": "[2]; competitor 10 μM", "value": 1.3}, {"measurement": "SILAC ratio, Scg2", "setting": "[2]; competitor 25 μM", "value": 1.5}, {"measurement": "SILAC ratio, Scg2", "setting": "[2]; competitor 50 μM", "value": 1.2}, {"measurement": "SILAC ratio, Scg2", "setting": "[2]; competitor 100 μM", "value": 1.1}, {"measurement": "SILAC ratio Slc25a33", "setting": "[3]; competitor 10 μM", "value": 1.2}, {"measurement": "SILAC ratio Slc25a33", "setting": "[3]; competitor 25 μM", "value": 1.2}, {"measurement": "SILAC ratio Slc25a33", "setting": "[3]; competitor 50 μM", "value": 0.9}, {"measurement": "SILAC ratio Slc25a33", "setting": "[3]; competitor 100 μM", "value": 0.6}, {"measurement": "SILAC ratio Idh2", "setting": "[4]; competitor 10 μM", "value": 1.3}, {"measurement": "SILAC ratio Idh2", "setting": "[4]; competitor 25 μM", "value": 1.4}, {"measurement": "SILAC ratio Idh2", "setting": "[4]; competitor 50 μM", "value": 1.6}, {"measurement": "SILAC ratio Idh2", "setting": "[4]; competitor 100 μM", "value": 1.6}, {"measurement": "SILAC ratio Zmpste24", "setting": "[5]; competitor 10 μM", "value": 1.1}, {"measurement": "SILAC ratio Zmpste24", "setting": "[5]; competitor 25 μM", "value": 1.2}, {"measurement": "SILAC ratio Zmpste24", "setting": "[5]; competitor 50 μM", "value": 1.3}, {"measurement": "SILAC ratio Zmpste24", "setting": "[5]; competitor 100 μM", "value": 1.9}, {"measurement": "SILAC ratio Lmf2", "setting": "[6]; competitor 10 μM", "value": 1.5}, {"measurement": "SILAC ratio Lmf2", "setting": "[6]; competitor 25 μM", "value": 1.7}, {"measurement": "SILAC ratio Lmf2", "setting": "[6]; competitor 50 μM", "value": 2.0}, {"measurement": "SILAC ratio Lmf2", "setting": "[6]; competitor 100 μM", "value": 2.5}, {"measurement": "SILAC ratio Spcs2", "setting": "[7]; competitor 10 μM", "value": 1.2}, {"measurement": "SILAC ratio Spcs2", "setting": "[7]; competitor 25 μM", "value": 1.4}, {"measurement": "SILAC ratio Spcs2", "setting": "[7]; competitor 50 μM", "value": 1.5}, {"measurement": "SILAC ratio Spcs2", "setting": "[7]; competitor 100 μM", "value": 1.8}]}]}
